Like-named read-outs stand apart in the source and are kept apart here. Square brackets hold non-standard residues; d marks the D form. Peptide text beside a SMILES is read from it. * marks the point of attachment. Benzoyl(4-OH) = O=C(c1ccc(O)cc1)*
Legend:
[1] = Modulator compound stability in cerebrospinal fluid; settings: 75% Rhesus monkey CSF, 37° C., 24 hours, HPLC; compared with PPI-368 (FIG. 1)
Description: The stability of a modulator compound in cerebrospinal fluid (CSF) can be assayed in an in vitro assay as follows. […] All sample handling is carried out in a laminar flow hood and test solutions are maintained at 37° C. during the assay. […] Samples (at the 0 time point and the 24 hour time point) are analyzed at room temperature using reverse-phase HPLC. A microbore column is used to maximize sensitivity. The parameters for analytical HPLC are as follows:
Chromatographic analysis is performed using a Hewlett Packard 1090 series II HPLC. The column used for separation is a C4, 5 μm, 1×250 mm (Vydac #214TP51). The flow rate is 50 μL/min and the elution profile of the test compounds is monitored at 214, 230, 260 and 280 nm.

[2] = biological target: Aβ1-40 (Homo sapiens, UniProt P05067); assay type: biochemical; parameters: ΔLag: unit not given here; settings: for ΔLag 3 μM: 3 μM test compound; for ΔLag 4 μM: 4 μM test compound; for ΔLag 5.0 μM: 5.0 μM test compound
Chain of Aβ1-40 (P05067 672-711): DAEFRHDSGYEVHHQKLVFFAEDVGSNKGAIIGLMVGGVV
Source text: The nucleation assay is employed to determine the ability of test compounds to alter (e.g. inhibit) the early events in formation of β-AP fibers from monomeric β-AP. Characteristic of a nucleated polymerization mechanism, a lag time is observed prior to nucleation, after which the peptide rapidly forms fibers as reflected in a linear rise in turbidity. The time delay before polymerization of β-AP monomer can be quantified as well as the extent of formation of insoluble fiber by light scattering (turbidity). Polymerization reaches equilibrium when the maximum turbidity reaches a plateau The turbidity of a solution of natural β-AP in the absence or presence of various concentrations of a β-amyloid modulator compound is determined by measuring the apparent absorbance of the solution at 405 nm (A405 nm) over time. The threshold of sensitivity for the measurement of turbidity is in the range of 15-20 μM β-AP. […] This assay can be performed using stirring or shaking to accelerate polymerization, thereby increasing the speed of the assay. Moreover the assay can be adapted to a 96-well plate format to screen multiple compounds.
HFIP-solubilized peptide is sonicated in a waterbath sonicator for 5 min at highest setting, then evaporated to dryness under a stream of argon. The peptide film is resuspended in anhydrous dimethylsulfoxide (DMSO) at a concentration of 6.9 mg/ml (25× concentration), sonicated for 5 min as before, then filtered through a 0.2 micron nylon syringe filter (VWR cat. No.28196-050). Test compounds are dissolved in DMSO at a 100× concentration. […] Ten microliters of the mixture is then added to the bottom of a well of a Corning Costar ultra low binding 96-well plate (Coming Costar, Cambridge Mass.; cat. No. 2500). Ninety microliters of water is added to the well, the plate is shaken on a rotary shaken at a constant speed at room temperature for 30 seconds, an additional 100 μl of 2× PTL buffer (20 mM NaH2PO4, 300 mM NaCl, pH 7.4) is added to the well, the plate is reshaken for 30 seconds and a baseline (t=0) turbidity reading is taken by measuring the apparent absorbance at 405 nm using a Bio-Rad Model 450 Microplate Reader. The plate is then returned to the shaker and shaken continuously for 5 hours. Turbidity readings are taken at 15 minute intervals.
β-amyloid aggregation in the absence of any modulators results in enhanced turbidity of the natural β-AP solution (i.e., an increase in the apparent absorbance at 405 nm over time). […]

[3] = Safety profile for PPI-558, daily subcutaneous injection for 14 days; settings: female rats, 3 and 30 mg/kg s.c. daily for 14 days
Description: On day 15, animals were sacrificed 1 hour post administration.

[4] = Brain uptake of tritium-labelled PPI-558 after subcutaneous injection; settings: male rats, single subcutaneous injection 4.6 mg/kg, 2 hours (FIG. 4)
Description: Male Sprague-Dawley rats (259-280 g) received a single subcutaneous injection in the nape of the neck (4.6 mg/kg at 1 ml/kg=4.6 mg/ml in 100% Sesame Oil). At various time points post administration (2, 8 and 24 hours; n=4/time point), the animlas were anesthetized. Trunk blood was taken to determine plasma levels of the parent compound and the left side of the brain was perfused with 1 ml of saline over 30 seconds via the left sommon carotid artery. The brain was rapidly removed and the left forebrain (perfused) was subjected to capillary depletion.

[5] = Table II, second series, different stock of Aβ1-40, 2 μM test compound
[6] = Table II, second series, different stock of Aβ1-40
[7] = Table II, second series, different stock of Aβ1-40, 5 μM test compound
[8] = Table IV, hydrophobic modifying groups, 5 μM test compound
[9] = Table V, hydroxylated and oxygenated modifying groups, 5 μM test compound

CC(C)C[C@@H](NC(=O)CC[C@@H](C)[C@H]1CC[C@H]2[C@@H]3[C@H](O)C[C@@H]4C[C@H](O)CC[C@]4(C)[C@H]3C[C@H](O)[C@]12C)C(=O)N[C@@H](C(=O)N[C@H](Cc1ccccc1)C(=O)N[C@H](Cc1ccccc1)C(=O)N[C@H](C)C(=O)O)C(C)C [PPI-433, cholyl-D-Leu-D-Val-D-Phe-D-Phe-D-Ala-OH]
stability in cerebrospinal fluid [1]: significantly greater stability in CSF than the L-amino acid-based compound

4-Hydroxybenzoyl-D-Leu-D-Val-D-Phe-D-Phe-D-Ala-NH2 [PPI-558]
ΔLag 5 μM ([2]; Table VIII, 5 μM test compound): 2.0 | overt toxicity [3]: No overt toxicity was observed | ratio of brain versus plasma levels [4]: almost twice

cholyl-D-Leu-D-Val-D-Phe-phenethylamide [PPI-494]
ΔLag 2 μM [2, 5]: 1.0 | ΔLag 3 μM [2, 6]: 1.3 | ΔLag 4 μM [2, 6]: 1.4 | ΔLag 5 μM [2, 7]: 1.4 | ΔLag 5 μM [2, 8]: 1.5 | ΔLag 5 μM ([2]; Table IX, 5 μM test compound): 1.3

CA-LVYFA-cooh [PPI-399]
ΔLag 2 μM ([2]; Table I, 5 μM Aβ1-40, 2 μM test compound, ratio of lag time with compound to lag time of control): 3.0 | ΔLag 5 μM ([2]; Table I, 5 μM Aβ1-40, 5 μM test compound, ratio of lag time to control): 6

(±)-Mandelyl-d(LVFF)-nh2 [PPI-482 (isomer 2)]
ΔLag 5 μM [2, 9]: 1.6

h-d(LVFA)-oh [PPI-479]
ΔLag 2 μM [2, 5]: 1.1 | ΔLag 3 μM [2, 6]: 0.9 | ΔLag 4 μM [2, 6]: 1.0 | ΔLag 5 μM [2, 7]: 1.1

3,5-Dihydroxy-2-naphthoyl-d(AFFVL)-nh2 [PPI-568]
ΔLag 5 μM ([2]; Table IX, 5 μM test compound): >6

Acetyl-d(LV(IodoY)FA)-nh2 [PPI-506]
ΔLag 5.0 μM ([2]; Table VI): 1.0

h-d(LFFVL)-nh2 [PPI-578]
ΔLag 0.5 μM ([2]; Table VI, 0.5 μM test compound): 2.5 | ΔLag 5.0 μM ([2]; Table VI): >7.5 | ΔLag […] ([2]; Table VI, […] test compound): 4.8 | ΔLag 5 μM ([2]; Table X, 5 μM test compound): 3.2

4-Hydroxycinnamoyl-d(LVFFA)-nh2 [PPI-537]
ΔLag 5 μM ([2]; Table IX, 5 μM test compound): 1.6 | ΔLag 5 μM [2, 9]: 1.0

4-Hydroxybenzoyl-d(AFFVL)-nh2 [PPI-629]
ΔLag 5 μM ([2]; Table IX, 5 μM test compound): 2.9

CC(C)C[C@@H](NC(=O)c1ccc(O)cc1)C(=O)N[C@@H](C(=O)N[C@H](Cc1ccc(O)cc1)C(=O)N[C@H](Cc1ccc(O)cc1)C(=O)N[C@H](C)C(N)=O)C(C)C [PPI-775, 4-Hydroxybenzoyl-d(LVYYA)-nh2] ({Benzoyl(4-OH)}-[dL][dV][dY][dY][dA]-NH2)
ΔLag ([2]; Table XI, 5 μM test compound): 1

3,7-Dihydroxy-2-naphthoyl-d(LFFVL)-nh2 [PPI-648]
ΔLag 5 μM ([2]; Table IX, 5 μM test compound): 3.1

3-Hydroxycinnamoyl-d(LVFFA)-nh2 [PPI-538]
ΔLag 5 μM ([2]; Table IX, 5 μM test compound): 2.0

Acetyl-d(LVYFA)-nh2 [PPI-505]
ΔLag 5.0 μM ([2]; Table VI): 1.0

Benzoylpropanoyl-d(LVFF)-nh2 [PPI-489]
ΔLag 5 μM [2, 9]: 1.2

2,4-Dihydroxybenzoyl-d(LVFFA)-nh2 [PPI-532]
ΔLag 5 μM ([2]; Table IX, 5 μM test compound): 1.7

Phenylacetyl-d(LVFF)-nh2 [PPI-480]
ΔLag 5 μM [2, 8]: 1.0

Pepstatin A [PPI-516, reference compound]
ΔLag 5 μM [2, 9]: 1.6

4-Hydroxy-3-methoxycinnamoyl-d(LVFFA)-nh2 [PPI-555]
ΔLag 5 μM ([2]; Table IX, 5 μM test compound): 1.7

h-d(LV(IodoY)FA)-nh2 [PPI-504]
ΔLag 5.0 μM ([2]; Table VI): 2.2 | ΔLag 5 μM ([2]; Table X, 5 μM test compound): 1.4

3,4-Dihydroxycinnamoyl-d(LVFFA)-nh2 [PPI-543]
ΔLag 5 μM ([2]; Table IX, 5 μM test compound): 1.6

DL-3-(4-Hydroxyphenyl)Lactyl-d(LVFFA)-nh2 [PPI-599]
ΔLag 5 μM ([2]; Table IX, 5 μM test compound): 1.4

D-3-Phenyllactyl-d(FFVL)-nh2 [PPI-612]
ΔLag 5 μM ([2]; Table IX, 5 μM test compound): 2.1

Triphenylacetyl-d(LVFF)-nh2 [PPI-485]
ΔLag 5 μM [2, 8]: 2.7

h-d(LVYFA)-nh2 [PPI-503]
ΔLag 5.0 μM ([2]; Table VI): 1.2
